Source: US6692695B1, “Industrial scale barrier technology for preservation of sensitive biological materials” (Quadrant Drug Delivery Limited, priority 1999, dated 2004)
Values belong to the compound of their own block, whether it stands above or below them.

Columns and labels:
[1] = Urokinase activity after foam drying and storage
Protocol: (7) Freeze-dried samples of Urokinase were rehydrated with 2 ml of 40 wt % sucrose. The solutions were then transferred to 20 ml sterilized glass vials for future preservation by drying. Before drying, the vials were covered with gray slotted rubber stoppers. The vials were dried inside a vacuum chamber. The vials were sitting on the surface of a stainless steel shelf inside the chamber. The shelf temperature was controlled by circulating ethylene glycol/water antifreeze at a controlled temperature inside the shelf. Before the vacuum was applied the shelf temperature was decreased to 5° C. Then the hydrostatic pressure inside the chamber was decreased to 0.5 Torr. Under such conditions, the suspension boiled for 30 min. […] Visually, under these experimental conditions, stable dry foams were formed inside the vials within 3 hours. After an additional 12 hours of drying at room temperature, the temperature was increased to 45° C. and maintained for an additional 24 hours. After that the chamber was filled with dry N2 gas, the rubber stoppers were pushed down and the vials were sealed with aluminum crimp seals.
The samples were assayed immediately after drying and after 30 days of storage at 40° C. After drying the Urokinase, activity was 93% of the initial activity. […]

[2] = Potency of Amphotericin after foam drying and storage
Protocol: (8) Freeze-dried samples of Amphotericin B were rehydrated with 5 ml 40 wt % sucrose per vial. Then the solutions were transferred into 50 ml sterilized glass vials for future preservation by drying. Before drying, the vials were covered with gray butyl slotted rubber stoppers. The vials were dried inside a vacuum chamber. The vials were placed on the surface of a stainless steel shelf inside the chamber. The shelf temperature was controlled by circulating ethylene glycol/water antifreeze at a controlled temperature inside the shelf. Before the vacuum was applied the shelf temperature was decreased to 5° C. The hydrostatic pressure inside the chamber was decreased to 0.5 Torr. Under such conditions the suspension boiled for 30 min. The temperature of the shelf was then slowly (during 30 min) increased to 25° C. Visually, stable dry foams were formed inside the vials under these experimental conditions within 3 hours. After an additional 12 hours of drying at room temperature, the chamber was filled with the dry N2 gas and the rubber stoppers in a portion of the vials were pushed down. The vials were removed from the chamber and subsequently sealed with aluminum crimped seal. The samples were assayed immediately after drying and after 30 days of storage at 27.5° and 40° C. The results are shown in Table 1, together with the results obtained in the next experiment.
Another set of freeze-dried samples of Amphotericin B was rehydrated with 5 ml 40 wt % sucrose per vial. The solutions were then transferred into sterilized glass vials for future preservation by drying similar to that described above with additional drying at 45° C. for additional 24 hours. After that, the chamber was filled again with the dry N2 gas, the rubber stoppers were pushed down and the vials were sealed. The samples were assayed right after drying and after 30 day of storage at 27.5° and 40° C.

[3] = Glass transition temperature of foam-dried sucrose particles; assay type: physicochemical
Protocol: (1) In the first test, the equipment set-up consisted of a 4.5 inch internal diameter glass tube connected to a standard Virtis SL600 Unitop condenser section and heated via two laboratory style hot plates from Coming. The opposite end of the glass tube was closed. A 200 ml solution of sucrose 50% (w/w) in de-ionized water was introduced to a 2 L PET beverage bottle, commonly used for soft drinks. This would be considered to be a semi-rigid container. The bottle was placed in the tube and the sucrose solution was preserved by foam formation. After mechanically stable foam was formed, the bottle containing the foam was held overnight at 0.3 Torr and 25° C. The next morning the vacuum was broken with air. Total process time was 23 hours. Immediately following tube disassembly, the bottle was removed from the tube and purged with dry nitrogen for approximately one minute. The bottle was capped with the accompanying plastic screw top. The foam appeared to completely fill the bottle. […] Next the bottle was struck against the laboratory counter about 8-10 times with light-moderate force. All of the foam inside broke apart into discreet particles with the visual and flow characteristics of sand. A small amount of material remained adhering to the bottle interior. The glass transition temperature of the coarse particulate material was 18° C.
(2) In a second test, the glass tube used in the first test was replaced with a jacketed glass tube. The jacket was filled with water and connected to a recirculating heater bath. The bottle used previously was replaced with a 1-gallon capacity polyethylene plastic storage bag, commonly available in supermarkets. This would be considered to be a flexible container. The bag was taped in place to a plastic holder to keep the bag open. The bag was filled with 150 ml of 50% (w/w) sucrose in de-ionized water. Primary foam drying was essentially completed 90 minutes later and the heating source switched to hot plates. Conditions at that point were 31° C. and 0.1 5 Torr. The foam was then held overnight. […]

Compound: Urokinase
activity, % of the initial activity ([1]; after 30 days of storage at 40° C.): 90%
activity, % of the initial activity ([1]; after drying (40 wt % sucrose, up to 45° C.)): 93%

Potency of Amphotericin (%) ([2]; Control): 126%
Potency of Amphotericin (%) After 30 days at 27.5° C. ([2]; Td = 25° C.): 114%
Potency of Amphotericin (%) After 30 days at 40° C. ([2]; Td = 25° C.): 95%
Potency of Amphotericin (%) After drying ([2]; Td = 25° C.): 108%
Potency of Amphotericin (%) After 30 days at 27.5° C. ([2]; Td = 45° C.): 102%
Potency of Amphotericin (%) After 30 days at 40° C. ([2]; Td = 45° C.): 104%
Potency of Amphotericin (%) After drying ([2]; Td = 45° C.): 103%
Compound: C[C@@H]1[C@H](O)[C@@H](C)/C=C/C=C/C=C/C=C/C=C/C=C/C=C/[C@H](O[C@@H]2O[C@H](C)[C@@H](O)[C@H](N)[C@@H]2O)C[C@@H]2O[C@](O)(C[C@@H](O)C[C@@H](O)[C@H](O)CC[C@@H](O)C[C@@H](O)CC(=O)O[C@H]1C)C[C@H](O)[C@H]2C(=O)O [Amphotericin, Amphotericin B]

glass transition temperature ([3]; 150 ml 50% (w/w) in 1-gallon polyethylene bag, 31° C., total 71 hours): 18.33 °C
glass transition temperature ([3]; 200 ml 50% (w/w) in 2 L PET bottle, held overnight at 0.3 Torr and 25° C., total 23 hours): 18 °C
glass transition temperature ([3]; 300 ml 50% (w/w) in larger bag, up to 55° C. and 0.2 Torr, total 23.5 hours): 33.3 °C
Compound: OC[C@H]1O[C@@](CO)(O[C@H]2O[C@H](CO)[C@@H](O)[C@H](O)[C@H]2O)[C@@H](O)[C@@H]1O [sucrose]
